Patent US20040152895A1, “Sulfonamides” (priority 2003, published 2004)

Biological target: T1, human and rat GPR-14 (UniProt Q9UKP6)
T1 sequence (Q9UKP6 1-389): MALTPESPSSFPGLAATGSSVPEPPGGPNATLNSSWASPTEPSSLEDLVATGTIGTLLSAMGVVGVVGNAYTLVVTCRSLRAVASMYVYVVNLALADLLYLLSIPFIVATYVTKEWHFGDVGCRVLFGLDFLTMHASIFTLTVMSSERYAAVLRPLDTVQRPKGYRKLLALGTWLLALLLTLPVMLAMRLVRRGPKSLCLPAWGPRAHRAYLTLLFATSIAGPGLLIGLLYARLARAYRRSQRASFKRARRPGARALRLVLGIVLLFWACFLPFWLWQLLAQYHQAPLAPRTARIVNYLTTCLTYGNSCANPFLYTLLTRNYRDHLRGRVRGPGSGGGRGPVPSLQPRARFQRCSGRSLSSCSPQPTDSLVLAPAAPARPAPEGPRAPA
Experiment: Radioligand binding assay ([125I] h-U-II)
Conditions: HEK-293 cell membranes, 200 pM [125I] h-U-II
Protocol: HEK-293 cell membranes containing stable cloned human and rat GPR-14 (20 ug/assay) were incubated with 200 pM [125I] h-U-II (200 Ci/mmol^−1 in the presence of increasing concentrations of test compounds in DMSO (0.1 nM to 10 uM), in a final incubation volume of 200 ul (20 mM Tris-HCl, 5 mM MgCl2). Incubation was done for 30 minutes at room temperature followed by filtration GF/B filters with Brandel cell harvester. ^125I labeled U-II binding was quantitated by gamma counting. Nonspecific binding was defined by ^125I U-II binding in the presence of 100 nM of unlabeled human U-II. Analysis of the data was performed by nonlinear least square fitting.

Ki: 220 nM
Structure (SMILES): CCCSc1ncc(S(=O)(=O)Nc2ccc(Cl)c(OCCN(C)C)c2)c(OC)n1 [Example 1, 4-methoxy-2-propylsulfanyl-pyrimidine-5-sulfonic Acid [4-chloro-3-(2-dimethylamino-ethoxy)-phenyl]-amide]
